Values of other authors, collected in PubChem BioAssay AID1259409 (Chemical Carcinogenesis Research Information System (CCRIS), 2018).

System: rodent chemically induced tumor inhibition, incidence and multiplicity
Assay: CCRIS tumor inhibitor studies

Structure (SMILES): CC1=C(/C=C/C(C)=C/C=C/C(C)=C/C(=O)Nc2ccc(O)cc2)C(C)(C)CCC1
- tumour outcome (control, treated, inhibition, significance) (Carcinogen: 7,12-DIMETHYLBENZ[A]ANTHRACENE, 57-97-6, Dose [Inhibitor]: 1.5 MMOL/KG CHOW DIET IN 25 ML OF THE VEHICLE (ETHANOL/TRICAPRYLIN 1:4 (VOL/VOL) PLUS 6% (WT/VOL) ALPHA-TOCOPHEROL) BEGI, Route [Inhibitor]: ORAL, Species: RAT, Strain/Sex: SPRAGUE-DAWLEY/FEMALE, Target Tissue: Type of Lesion: MAMMARY GLAND: TUMOR, Dose [Carcinogen]: 75 MG/KG BW IN 1.0 ML SESAME OIL ONCE, Promoter: NONE USED): 70%, 30%, 57%, not significant
- tumour outcome (control, treated, inhibition, significance) (Carcinogen: 7,12-DIMETHYLBENZ[A]ANTHRACENE, 57-97-6, Dose [Inhibitor]: 2 MMOL/KG DIET DAILY FROM 10 D THROUGH 12 WK AFTER CARCINOGEN DOSE FOLLOWED BY 16 WK OBSERVATION PERIOD (STUDY DURATION:, Route [Inhibitor]: ORAL, Species: RAT, Strain/Sex: SPRAGUE-DAWLEY/FEMALE, Target Tissue: Type of Lesion: MAMMARY GLAND: TUMOR, Dose [Carcinogen]: 10 MG/RAT ONCE, Promoter: NONE USED): 8/15 (53%), 7/15 (47%), 11%, not significant
- tumour outcome (control, treated, inhibition, significance) (Carcinogen: 7,12-DIMETHYLBENZ[A]ANTHRACENE, 57-97-6, Dose [Inhibitor]: 2 MMOL/KG DIET DAILY FROM 29 D PRIOR THROUGH 12 WK AFTER CARCINOGEN DOSE FOLLOWED BY 16 WK OBSERVATION PERIOD (STUDY DUR, Route [Inhibitor]: ORAL, Species: RAT, Strain/Sex: SPRAGUE-DAWLEY/FEMALE, Target Tissue: Type of Lesion: MAMMARY GLAND: TUMOR, Dose [Carcinogen]: 10 MG/RAT ONCE, Promoter: NONE USED): 8/15 (53%), 9/15 (60%), -13%, not significant
- tumour outcome (control, treated, inhibition, significance) (Carcinogen: DIETHYLNITROSAMINE [55-18-5], Dose [Inhibitor]: 280 NM/100 G BW WK FOR 3 WK BETWEEN 4TH AND 25TH WK AFTER CARCINOGEN (STUDY DURATION: 50 WK), Route [Inhibitor]: IP INJECTION, Species: RAT, Strain/Sex: F344/MALE, Target Tissue: Type of Lesion: LIVER: HEPATOCELLULAR CARCINOMA, Dose [Carcinogen]: 150 MG/KG ONCE, Promoter: 2-ACETYLAMINOFLUORENE [53-96-3]): 14/18 (78%), 6/20 (30%), 62%, p= 0.0044
- tumour outcome (control, treated, inhibition, significance) (Carcinogen: DIETHYLNITROSAMINE, 55-18-5, Dose [Inhibitor]: 0, 98 MG/KG DIET FOR DURATION OF STUDY BEGINNING 1 WK PRIOR TO CARCINOGEN TREATMENT (STUDY DURATION: 25 WK), Route [Inhibitor]: ORAL, Species: HAMSTER, Strain/Sex: SYRIAN/MALE, Target Tissue: Type of Lesion: LUNG: CARCINOMA, Dose [Carcinogen]: 17.8 MG/KG BW 2/WK FOR 20 WK, Promoter: NONE USED): 50%, 45%, 10%, not significant
- tumour outcome (control, treated, inhibition, significance) (Carcinogen: DIETHYLNITROSAMINE, 55-18-5, Dose [Inhibitor]: 0, 98 MG/KG DIET FOR DURATION OF STUDY BEGINNING 1 WK PRIOR TO CARCINOGEN TREATMENT (STUDY DURATION: 25 WK), Route [Inhibitor]: ORAL, Species: HAMSTER, Strain/Sex: SYRIAN/MALE, Target Tissue: Type of Lesion: TRACHEA: PAPILLOMA, Dose [Carcinogen]: 17.8 MG/KG BW 2/WK FOR 20 WK, Promoter: NONE USED): 95%, 95%, 0%, not significant
- tumour outcome (control, treated, inhibition, significance) (Carcinogen: DIETHYLNITROSAMINE, 55-18-5, Dose [Inhibitor]: 0, 196 MG/KG DIET FOR DURATION OF STUDY BEGINNING 1 WK PRIOR TO CARCINOGEN TREATMENT (STUDY DURATION: 25 WK), Route [Inhibitor]: ORAL, Species: HAMSTER, Strain/Sex: SYRIAN/MALE, Target Tissue: Type of Lesion: LUNG: CARCINOMA, Dose [Carcinogen]: 17.8 MG/KG BW 2/WK FOR 20 WK, Promoter: NONE USED): 60%, 50%, 17%, not significant
- tumour outcome (control, treated, inhibition, significance) (Carcinogen: DIETHYLNITROSAMINE, 55-18-5, Dose [Inhibitor]: 0, 196 MG/KG DIET FOR DURATION OF STUDY BEGINNING 1 WK PRIOR TO CARCINOGEN TREATMENT (STUDY DURATION: 25 WK), Route [Inhibitor]: ORAL, Species: HAMSTER, Strain/Sex: SYRIAN/MALE, Target Tissue: Type of Lesion: TRACHEA: PAPILLOMA, Dose [Carcinogen]: 17.8 MG/KG BW 2/WK FOR 20 WK, Promoter: NONE USED): 100%, 100%, 0%, not significant
- tumour outcome (control, treated, inhibition, significance) (Carcinogen: DIMETHYLBENZ[A]ANTHRACENE, 57-97-6, Dose [Inhibitor]: 0, 782 MG/KG DIET IN VEHICLE 2 MO PRIOR TO CARCINOGEN DOSE AND CONTINUED UNTIL CARCINOGEN ADMINISTRATION (STUDY DURATION, Route [Inhibitor]: ORAL, Species: RAT, Strain/Sex: CD-1/FEMALE, Target Tissue: Type of Lesion: MAMMARY GLAND: ADENOCARCINOMA, Dose [Carcinogen]: 20 MG IN 1 ML SESAME OIL ONCE, Promoter: NONE USED): 63%, 71%, -13%, not calculated
- tumour outcome (control, treated, inhibition, significance) (Carcinogen: DIMETHYLBENZ[A]ANTHRACENE, 57-97-6, Dose [Inhibitor]: 0, 782 MG/KG DIET IN VEHICLE 2 MO PRIOR TO CARCINOGEN DOSE AND CONTINUED UNTIL CARCINOGEN ADMINISTRATION (STUDY DURATION, Route [Inhibitor]: ORAL, Species: RAT, Strain/Sex: CD-1/FEMALE, Target Tissue: Type of Lesion: MAMMARY GLAND: ADENOMA, Dose [Carcinogen]: 20 MG IN 1 ML SESAME OIL ONCE, Promoter: NONE USED): 17%, 43%), -153%, not calculated
- tumour outcome (control, treated, inhibition, significance) (Carcinogen: METHYLNITROSOUREA, 684-93-5, Dose [Inhibitor]: 0, 782 MG/KG DIET IN VEHICLE 2 MO PRIOR TO CARCINOGEN DOSE AND CONTINUED FOR STUDY DURATION (STUDY DURATION: 8 MO), Route [Inhibitor]: ORAL, Species: RAT, Strain/Sex: CD-1/FEMALE, Target Tissue: Type of Lesion: MAMMARY GLAND: ADENOCARCINOMA, Dose [Carcinogen]: 50 MG/KG BW ONCE, Promoter: NONE USED): 57%, 23%, 60%, p<0.05
- tumour outcome (control, treated, inhibition, significance) (Carcinogen: METHYLNITROSOUREA, 684-93-5, Dose [Inhibitor]: 0, 782 MG/KG DIET IN VEHICLE 2 MO PRIOR TO CARCINOGEN DOSE AND CONTINUED FOR STUDY DURATION (STUDY DURATION: 8 MO), Route [Inhibitor]: ORAL, Species: RAT, Strain/Sex: CD-1/FEMALE, Target Tissue: Type of Lesion: MAMMARY GLAND: BENIGN TUMOR, Dose [Carcinogen]: 50 MG/KG BW ONCE, Promoter: NONE USED): 10%, 3%, 70%, not calculated
- tumour outcome (control, treated, inhibition, significance) (Carcinogen: METHYLNITROSOUREA, 684-93-5, Dose [Inhibitor]: 0, 782 MG/KG DIET IN VEHICLE 2 MO PRIOR TO CARCINOGEN DOSE AND CONTINUED UNTIL CARCINOGEN ADMINISTRATION (STUDY DURATION, Route [Inhibitor]: ORAL, Species: RAT, Strain/Sex: CD-1/FEMALE, Target Tissue: Type of Lesion: MAMMARY GLAND: ADENOCARCINOMA, Dose [Carcinogen]: 50 MG/KG BW ONCE, Promoter: NONE USED): 57%, 66%, -16%, not calculated
